Where “and” joins values, the source holds several entries; their conditions need not be identical. Identical values can stand only once.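 Step 1: Grow cells in 96-well plates. Step 2: Expose to compound for 48 hours at 5 concentrations. Step 3: Interpolate endpoints linearly; if unreached, use highest concentration. GI50: concentration for 50% inhibition of growth. The concentration for full growth arrest is given as TGI.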
Tests used:
Assay in all cases: NCI anticancer screen, dose series, 48 h
[1] = system: SR leukemia
[2] = system: RPMI-8226 leukemia
[3] = system: HCT-15 colon
[4] = system: SF-295 CNS
[5] = system: SK-MEL-5 melanoma
[6] = system: ACHN renal
[7] = system: M14 melanoma
[8] = system: UACC-257 melanoma
[9] = system: MOLT-4 leukemia
[10] = system: HCC-2998 colon

SMILES	TGI [1]	TGI [2]	TGI [3]	TGI [4]	TGI [5]	TGI [6]	TGI [7]	TGI [8]	TGI [9]	TGI [10] [µM]	GI50 [1]	GI50 [2]	GI50 [3]	GI50 [4]	GI50 [5] [µM]	GI50 [6]	GI50 [7]	GI50 [8]	GI50 [9]	GI50 [10] [µM]
CC12CCC(Br)C(C)(C)C1CC=C1C(=O)OCC1O2 (stereo not drawn)	31.2 µM	> 60.6 µM	39 µM	37.6 µM	> 100 µM	26.2 µM	> 51.9 µM	27 µM	> 100 µM	24.9										
COc1ccccc1NC(=O)CC(=O)N/N=C/c1ccc(N(CCC#N)S(=O)(=O)c2ccccc2)cc1	> 100 µM	> 100 µM	> 100 µM	> 100 µM	> 100 µM	> 100 µM	> 100 µM	> 100 µM	> 100 µM	> 100										
N#CC1CC2(CCN1C(=O)c1ccccc1)OCCO2 (stereo not drawn)	> 100 µM	> 100 µM	> 100 µM	> 100 µM	> 100 µM	> 100 µM	> 100 µM	> 100 µM	> 100 µM	> 100										
COc1cccc(NC(=O)/C(Cc2nc3ccccc3nc2C)=N/NC(=O)C[n+]2ccccc2)c1	> 100 µM	68.1 µM	> 100 µM	> 100 µM	> 100 µM	> 100 µM	> 100 µM	> 100 µM	> 100 µM	> 100										
Cc1ccc(O)c(NC(=O)c2ccc(CNc3ccnc(C(F)(F)F)c3)cc2)c1	30 µM	11.3 µM	76.3 µM	12.2 µM	14.7 µM	> 100 µM	24.2 µM	48.5 µM	20.6 µM	23.2	5.1 µM	2.64 µM	5.19 µM	1.35 µM	4.07	3.66 µM	5 µM	12.2 µM	1.77 µM	7.45
O=C1C(=Cc2c(O)cc(O)cc2O)C(=O)c2ccccc21	50.7 µM	> 71.9 µM	> 77 µM	> 57 µM	> 100 µM	> 57.6 µM	> 57.2 µM	> 58.1 µM	> 81.6 µM	> 56.4										
COc1cc(-c2nc(SCCC(C)C)nc(Nc3ccc(S(N)(=O)=O)cc3)c2C#N)cc(OC)c1OC	6.86 µM	6.79 µM	> 100 µM	7.35 µM	3.01 µM	> 100 µM	24.7 µM	> 100 µM	> 100 µM	> 100	1.91 µM	1.73 µM	2.4 µM	2.71 µM	1.59	2.79 µM	2.9 µM	3.9 µM	2.39 µM	3.22
CCN(CC)c1ccc(C(=O)c2ccc(N(CC)CC)cc2)cc1	> 100 µM	6.25 µM	36.1 µM	4.17 µM	12.7 µM	> 100 µM	> 30.1 µM	> 59.2 µM	19.8 µM	35.4	0.127 µM	0.519 µM	0.412 µM	0.289 µM	0.384	0.935 µM	0.614 µM	0.461 µM	0.718 µM	1.26
O=C(NC12CC3CC(CC(C3)C1)C2)C(=O)c1c[nH]c2ccccc12	48.7 µM	55.3 µM	24.4 µM	22.4 µM	30.4 µM	28.8 µM	29.3 µM	25.9 µM	43.2 µM	28										
Cc1cc(C)c(-n2c(-c3ccc(Br)cc3)cs/c2=N\N=C2C=C(C(C)(C)C)C(=O)C(C(C)(C)C)=C2)c(C)c1	> 100 µM	> 100 µM	> 100 µM	> 100 µM	> 100 µM	> 100 µM	> 100 µM	> 100 µM	> 100 µM	> 100										
COC(=O)Nc1nc2ccc(Br)cc2[nH]1	> 100 µM	> 100 µM	> 100 µM	> 100 µM	> 100 µM	> 100 µM	> 100 µM	> 100 µM	> 100 µM	> 100										
COc1ccc(OCC(=O)O)c(C(=O)CCC(=O)O)c1	> 100 µM	> 100 µM	> 100 µM	> 100 µM	> 100 µM	> 100 µM	> 10 µM	> 100 µM	> 100 µM	> 100										
COc1cc2c(cc1OC)C13CCN4CC5CCOC6CC(=O)N2C1C6C5CC43 (stereo not drawn)	> 100 µM	> 100 µM	> 100 µM	> 100 µM	> 100 µM	> 100 µM	> 100 µM	> 100 µM	> 100 µM	> 100										
Cc1cc(Cl)ccc1NC(=O)CC1SC(=Nc2ccccc2Cl)NC1=O (stereo not drawn)	70.2 µM	> 100 µM	> 100 µM	> 100 µM	> 100 µM	> 100 µM	> 100 µM	> 100 µM	> 100 µM	> 100										
O=C1C(=O)c2cccnc2-c2ncccc21	1.08 µM	0.399 µM	1.42 µM	0.946 µM	0.801 µM	0.318 µM	0.441 µM	0.924 µM	0.509 µM	2.92	0.0875 µM	0.0459 µM	0.185 µM	0.295 µM	0.239	0.0545 µM	0.159 µM	0.268 µM	0.171 µM	1.32
CCN1CCN(CC(=O)N2c3cccc4cccc(c34)N(C(=O)CN3CCN(CC)CC3)C2c2cn(-c3ccccc3)nc2-c2cccc([N+](=O)[O-])c2)CC1	0.8 µM	3.94 µM	2.98 µM	3.44 µM	3.21 µM	3.08 µM	3.46 µM	3.68 µM	5.06 µM	3.43	0.267 µM	1.59 µM	1.46 µM	1.84 µM	1.75	1.64 µM	1.69 µM	1.85 µM	1.69 µM	1.83

SMILES	TGI [1]	TGI [2]	TGI [3]	TGI [4]	TGI [5]	TGI [6]	TGI [7]	TGI [8]	TGI [9]	TGI [10] [µM]	GI50 [1]	GI50 [2]	GI50 [3]	GI50 [4]	GI50 [5] [µM]	GI50 [6]	GI50 [7]	GI50 [8]	GI50 [9]	GI50 [10] [µM]
O=C1CCc2c(sc3[nH]c(=S)n(Cc4ccc(Cl)cc4)c(=O)c23)C1	> 45.2 µM		1.64 µM	4.68 µM	1.13 µM	3.63 µM	> 56.3 µM	5.72 µM	17.1 µM	2.3	0.562 µM	0.383 µM	0.347 µM	0.863 µM	0.362	0.465 µM	0.477 µM	1.33 µM	1.21 µM	0.577
Cc1cccc(NC(=O)c2cccc([N+](=O)[O-])c2O)c1C	> 100 µM	> 87.3 µM	> 100 µM	80.1 µM	27.6 µM	> 100 µM	> 100 µM	> 79.3 µM	> 92.7 µM	> 100										
Cc1cn(-c2cc(NC(=O)c3ccc(C)c(Nc4nccc(-c5cccnc5)n4)c3)cc(C(F)(F)F)c2)cn1	> 10 µM and 26.9 µM	> 100 µM	> 38.3 µM	> 10 µM and 11.3 µM	7.01 µM	> 10 µM and 27.2 µM	5.91 µM and 4.87 µM	> 10 µM and 7.97 µM	> 37.2 µM	> 65	3.06 µM and 2.67 µM	2.29 µM and 2.25 µM	3.18 µM and 4.6 µM	3.16 µM and 2.78 µM	1.73	> 10 µM and 9.36 µM	1.66 µM and 1.45 µM	4.46 µM and 2.49 µM	3.21 µM and 1.6 µM	
O=C(O)C1CC(O)CN1 (stereo not drawn)	> 100 µM	> 100 µM	> 100 µM	> 100 µM	> 100 µM	> 100 µM	> 100 µM	> 100 µM	> 100 µM	> 100										
C=C(c1ccccc1)[C@@]1(O)CC[C@@H]1N(CC#N)Cc1ccccc1	> 69.9 µM	> 67 µM	34.6 µM	> 100 µM	31.8 µM	41.4 µM	32.6 µM	34 µM	69.2 µM	44.3										
Cc1cccc(C)c1NC(=O)C(=O)Nn1c(NN)nc2ccccc2c1=O	> 100 µM	> 100 µM	> 100 µM	> 100 µM	> 100 µM	> 100 µM	> 100 µM	> 100 µM	> 100 µM	> 100										
N#CC1(C#N)C(C#N)(C#N)C12CCCCCC2	75.2 µM	> 35.1 µM	24.2 µM	> 57.2 µM	36.7 µM	23.2 µM	8.67 µM	27.4 µM	19.5 µM	35.3										
CC1OC(n2cc(F)c(=O)[nH]c2=O)C=CC1=O (stereo not drawn)	55.8 µM	93.2 µM	46.1 µM	31 µM	31.4 µM	31.9 µM	34.1 µM	32.2 µM	69.3 µM	43.8										
O=C(OC[C@H]1O[C@H](OC(=O)c2cc(O)c(O)c(OC(=O)c3cc(O)c(O)c(O)c3)c2)[C@H](OC(=O)c2cc(O)c(O)c(OC(=O)c3cc(O)c(O)c(O)c3)c2)[C@@H](OC(=O)c2cc(O)c(O)c(OC(=O)c3cc(O)c(O)c(O)c3)c2)[C@@H]1OC(=O)c1cc(O)c(O)c(OC(=O)c2cc(O)c(O)c(O)c2)c1)c1cc(O)c(O)c(OC(=O)c2cc(O)c(O)c(O)c2)c1	> 25 µM	> 25 µM	> 25 µM	> 25 µM	13.1 µM	> 25 µM	> 25 µM	> 25 µM	> 25 µM	> 25	1.86 µM	7.35 µM	6.2 µM	0.941 µM	2.98	6.42 µM	5.01 µM	13.4 µM	4.32 µM	2.52
O=C1C(Cl)=C(NCc2ccco2)C(=O)c2ccccc21	> 100 µM	> 100 µM	56.5 µM	41.6 µM	3.11 µM	> 100 µM	12.1 µM	40 µM	> 100 µM	50.8	20.6 µM	10.2 µM	4.77 µM	8.24 µM	1.62	27 µM	4.31 µM	7.81 µM	52.1 µM	21.7
CCOC(=O)c1c2c(n3ccccc13)C(=O)c1ncccc1C2=O	> 100 µM	19.5 µM	12.8 µM	11.3 µM	1.51 µM	6.24 µM	2.94 µM	4.21 µM	76.8 µM	14.3	0.0159 µM	0.423 µM	0.024 µM	1.31 µM	0.142	0.0343 µM	0.0354 µM	0.28 µM	2.43 µM	0.877
CC(C)(c1ccccc1)c1ccc(OC#N)cc1	43.1 µM	> 70.1 µM	31.3 µM	> 100 µM	> 100 µM	> 100 µM	> 100 µM	> 100 µM	> 100 µM	> 100										
NCCCNCCCCNC(=O)C(O)NC(=O)CCCCCCN=C(N)N (stereo not drawn)	750 µM and > 4240 µM	750 µM and > 3790 µM	750 µM and > 5000 µM	608 µM and > 4710 µM	> 750 µM and 2820 µM	> 5000 µM	> 3810 µM	> 5000 µM	750 µM and > 4510 µM	> 4260	530 µM	1770 µM	> 2640 µM	1400 µM	1730	2750 µM	2450 µM	> 4100 µM	1620 µM	2720
C=C1CC2(OC1=O)C(=O)Nc1ccccc12 (stereo not drawn)	6.03 µM	5.94 µM	3.69 µM	> 100 µM	18.8 µM	2.29 µM	10 µM	4.24 µM	5.98 µM	23.2	1.32 µM	1.8 µM	1.51 µM	28.9 µM	6.13	1.09 µM	2.71 µM	1.74 µM	2 µM	9.35
CN(C)c1ccc(/C=C/c2cc[n+](C)c(/C=C/c3ccc(N(C)C)cc3)c2)cc1	2.45 µM	0.675 µM	9.74 µM	1.32 µM	0.465 µM	2.4 µM	1.65 µM	0.853 µM	3.53 µM	1.97	0.309 µM	0.123 µM	0.904 µM	0.27 µM	0.204	0.401 µM	0.376 µM	0.275 µM	0.388 µM	0.381
COC(=O)/C=C/c1cc2c(cc1-c1c(C(=O)O)cc(OC)c(OC)c1OC)OCO2	> 10 µM	> 10 µM	> 10 µM	> 10 µM	> 10 µM	> 10 µM	> 10 µM	> 10 µM	> 10 µM	> 10										
